Literature values as cited in patent US6375634B1, “APPARATUS AND METHOD TO ENCAPSULATE, KILL AND REMOVE MALIGNANCIES, INCLUDING SELECTIVELY INCREASING ABSORPTION OF X-RAYS AND INCREASING FREE-RADICAL DAMAGE TO RESIDUAL TUMORS TARGETED BY IONIZING AND NON-IONIZING RADIATION THERAPY” (Oncology Innovations, Inc., priority 1997, dated 2002).
Entries after “also recorded” stand apart in the source; their conditions may differ.

How the values were obtained:
[1] = tested on: DNA
[2] = tested on: DNA; conditions: in the presence of hydrogen peroxide, among ferric iron chelates
[3] = tested on: Chinese hamster ovary cells
[4] = tested on: human pancreatic adenocarcinoma AsPC-1 cells
[5] = presence of l-histidine
[6] = iron overload states

Q: With OO [hydrogen peroxide] as the compound, how does the DNA injury ([1]; 80 micromoles hydrogen peroxide, absence of histidine) read?
A: Its DNA injury is “no injury”.

Q: For O=C(O)CN(CC(=O)O)CC(=O)O.[Fe+3] [ferric nitrilo tri-acetic acid], which DNA damage [2] is on record?
A: Its DNA damage is “produced the most DNA damage”.

Q: Which results are given for ferritin?
A: toxicity ([3]; 32 micrograms/ml): nontoxic; also recorded: not toxic; reduction of clonogenic-cell survival after x-irradiation ([3]; 32 micrograms/ml ferritin, 4.0 Gray): approximately 75%; clonogenic-cell survival after x-irradiation ([3]; 32 micrograms/ml ferritin, 4.0 Gray (about 0.66 without ferritin)): ~0.17

Q: Which “cell cycle effect in flow-cytometric analysis” value [4] does the source give for Cc1c(N)nc([C@H](CC(N)=O)NC[C@H](N)C(N)=O)nc1C(=O)N[C@H](C(=O)N[C@H](C)[C@@H](O)[C@H](C)C(=O)N[C@H](C(=O)NCCc1nc(-c2nc(C(=O)NCCC[S+](C)C)cs2)cs1)[C@@H](C)O)[C@@H](O[C@@H]1O[C@@H](CO)[C@@H](O)[C@H](O)[C@@H]1O[C@H]1O[C@H](CO)[C@@H](O)[C@H](OC(N)=O)[C@@H]1O)c1c[nH]cn1.[Br-] [Bleomycin A2] here?
A: The value was “induced G2/M block”.

Q: What about the induction of apoptosis [4] of the same compound?
A: The induction of apoptosis was “did not induce apoptosis”.

Q: With N[C@@H](Cc1c[nH]cn1)C(=O)O [l-histidine] as the compound, how does the DNA destroyed ([1]; 80 micromoles hydrogen peroxide with 300 micromoles l-histidine present) read?
A: Its DNA destroyed is “more than 50%”.

Q: And the “sensitivity of hydrogen peroxide resistant cell lines” value [5]?
A: The value was “rendered sensitive”.

Q: For [Fe] [iron], which “tissue iron level at which the heart sustains injury” value [6] is on record?
A: Its value is “approximately one thousand”.
